Results: patent publication US11219607B2, “Methods for suppressing cancer-related cachexia” (Ohio State Innovation Foundation, priority 2013, dated 2022)
“Also recorded” adds a separate entry of the source.

Assays:
Atrogin-1/MAFbx mRNA = experiment: qPCR of gastrocnemius muscle, C-26 model: Atrogin-1; assay type: in vivo, CD2F1 mice; details: C-26 tumor-bearing mice, 15 days after tumor cell injection, tumor-bearing/vehicle 29.4±3.5-fold, mean±S.D.
Method: (§1) Total RNA was isolated from homogenized gastrocnemius muscles (n=3/group) with TRIzol reagent (Life Technologies, Carlsbad, Calif.) and then purified using the RNAeasy Mini Kit (Qiagen, Valencia, Calif.). qRT-PCR was performed as described previously (42) by using the Bio-Rad CFX96 Real-Time PCR Detection System with iQ SYBR Green Supermix (Bio-Rad, Hercules, Calif.). RNA-seq library generation and data analysis were performed at The Ohio State University Comprehensive Cancer Center (OSUCCC) Nucleic Acid Shared Resource.
(§2) AR-42 was able to restore expression of Atrogin-1 (2.7±0.7-fold) and MuRF1 (1.1±0.2-fold) mRNA to basal levels […].

MuRF1 mRNA = experiment: qPCR of gastrocnemius muscle, C-26 model: MuRF1; assay type: in vivo, CD2F1 mice; details: C-26 tumor-bearing mice, 15 days after tumor cell injection, tumor-bearing/vehicle 25.8±3.9-fold, mean±S.D.
Method: as §1, §2

C-26 tumor-bearing mice [1] = experiment: Survival and body weight comparison of HDAC inhibitors, C-26 model; assay type: in vivo, CD2F1 mice; details: vorinostat 50 mg/kg p.o. once daily, romidepsin 0.6 mg/kg i.p. twice weekly, from day 6
Method: In one aspect, tumors were established by subcutaneous injection of C-26 cells (0.5×10^6 cells in 0.1 ml) into the right flank of male CD2F1 mice (approximately 6 weeks of age; Harlan Laboratories, Indianapolis, Ind.)(11). Tumor-bearing mice, as well as tumor-free mice serving as non-cachectic controls, were randomized into groups that were treated with either AR-42 (50 mg/kg, p.o. by gavage, every other day; Arno Therapeutics, Inc., Flemington, N.J.) or vehicle (0.5% methylcellulose (w/v) and 0.1% Tween-80 (v/v) in sterile water) starting 6 days after cell injection. To investigate the effect of delayed treatment, treatments with drug and/or vehicle were started 6, 10 and 12 days after cancer cell injection.
In another aspect, the effects of AR-42 were compared to other HDAC inhibitors. […]
The effects of AR-42 were compared to other HDAC inhibitors (i.e., vorinostat and romidepsin) in C-26 tumor-bearing mice. Starting on day 6 after tumor cell injection, mice were treated continuously with AR-42 (50 mg/kg every other day, orally), vorinostat [50 mg/kg once daily, orally (13)], romidepsin [0.6 mg/kg twice weekly, i.p. (14)], or vehicle, until weight loss, as determined by daily body weight measurements and subtraction of tumor mass, reached 20% of starting weight. […]

C-26 tumor-bearing mice [2] = details: literature reference (33); cited from earlier work

Row | SMILES | Atrogin-1 mRNA level relative to tumor-free/vehicle control (Atrogin-1/MAFbx mRNA) [fold] | MuRF1 mRNA level relative to tumor-free/vehicle control (MuRF1 mRNA) [fold] | protective effect on body weight / attenuation of cachexia-induced weight loss (C-26 tumor-bearing mice [1]) | reversal of muscle loss in C-26 tumor-bearing mice (C-26 tumor-bearing mice [2])
1 | C/C=C1\NC(=O)[C@H]2CSSCC/C=C/[C@H](CC(=O)N[C@H](C(C)C)C(=O)N2)OC(=O)[C@H](C(C)C)NC1=O [romidepsin] | 19.6±3.1 | 14.6±3.3 |  | 
2 | O=C(CCCCCCC(=O)Nc1ccccc1)NO [vorinostat] | 9.6±1.8 | 5.5±1.1 | limited or no appreciable protective effects; also recorded: ineffective | 
3 | CC(/C=C/C(=O)NO)=C\[C@@H](C)C(=O)c1ccc(N(C)C)cc1 [trichostatin-A] |  |  |  | could not reverse muscle loss
4 | CCCC(CCC)C(=O)O [valproic acid] |  |  |  | could not reverse muscle loss
